# Laboratory results taken from PMC5627750 (International Journal of Nanomedicine, 2017).
# How the values were obtained:
# in vivo = settings: male, Sprague-Dawley, rat, iv, 10 mg
# [1] = type: physicochemical; settings: pH 7.4
# [2] = male, Sprague-Dawley, rat, in vivo, 10 mg/kg
# MI rat models = test system: MI rat models; set-up: species or system Sprague-Dawley rats; settings: in vivo, iv, 10 mg/kg
smiles,measurement,setting,value
"COc1cc2c(c(OC)c1OC)-c1c(cc3c(c1OC)OCO3)CC(C)C(C)C2 (centres unmarked) [Sch B solution, Schisandrin B]",AUC(0-inf),in vivo,13700 ± 1540 ng·h/mL
same,AUC(0-t),in vivo,12400 ± 1310 ng·h/mL
same,Vd,in vivo,18.5 ± 2.61 L/kg
same,clearance,in vivo,65.7 mL/min/kg
same,half-life,in vivo,55.8 ± 5.4 min
same,time to complete release of Sch B,[1],≤ 2 h
same,time until cleared from the circulation,[2],≤ 4 h
same,infarct size,MI rat models,36.5%
